Assay results published in ChEMBL document CHEMBL1201862, “PubChem BioAssay data set” (2004).
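Dose response: 5 concentrations. Exposure: 48 h. Format: 96-well plates. Endpoint: linear interpolation; highest concentration if not reached. Here, GI50 denotes the concentration required for 50% inhibition of growth.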 The source made the active and inactive calls. No stated cut-off is given here; in the data, active = GI50 up to about 1.1 µM and inactive = higher.

What was measured:
Experiment in all cases: DTP human tumour cell line panel, 48 h
786-0 = system: 786-0
A549 = system: A549
BT-549 = system: BT-549
DU-145 = system: DU-145
HCT-116 = system: HCT-116
Hs-578T = system: Hs-578T
IGROV-1 = system: IGROV-1
MCF7 = system: MCF7
NCI-H226 = system: NCI-H226
NCI-H23 = system: NCI-H23
NCI/ADR-RES = system: NCI/ADR-RES
OVCAR-5 = system: OVCAR-5
RXF 393 = system: RXF 393
SF-268 = system: SF-268
SF-295 = system: SF-295
SNB-75 = system: SNB-75
SR = system: SR
UACC-257 = system: UACC-257
UACC-62 = system: UACC-62
SNB-19 = system: SNB-19

| Structure (SMILES) | GI50 (786-0) | GI50 (A549) | GI50 (BT-549) | GI50 (DU-145) | GI50 (HCT-116) | GI50 (Hs-578T) | GI50 (IGROV-1) | GI50 (MCF7) | GI50 (NCI-H226) | GI50 (NCI-H23) | GI50 (NCI/ADR-RES) | GI50 (OVCAR-5) | GI50 (RXF 393) | GI50 (SF-268) | GI50 (SF-295) | GI50 (SNB-75) | GI50 (SR) | GI50 (UACC-257) | GI50 (UACC-62) | GI50 (SNB-19) |
| --- | --- | --- | --- | --- | --- | --- | --- | --- | --- | --- | --- | --- | --- | --- | --- | --- | --- | --- | --- | --- |
| COC(=O)C1=NN2c3ccccc3C(=O)OCCC2C1 (centres undefined) | > 100 µM (inactive) | > 100 µM (inactive) | > 100 µM (inactive) | > 100 µM (inactive) | > 100 µM (inactive) | > 100 µM (inactive) | 71.9 µM (inactive) | > 100 µM (inactive) | > 100 µM (inactive) | > 100 µM (inactive) | > 100 µM (inactive) | > 100 µM (inactive) | > 100 µM (inactive) | > 100 µM (inactive) | > 100 µM (inactive) | > 100 µM (inactive) | > 100 µM (inactive) | > 100 µM (inactive) | > 100 µM (inactive) | – |
| COc1ccc(-c2cn3c(nc4ccccc43)c(/C=C/c3cccs3)n2)cc1 | 71.3 µM (inactive) | 55.6 µM (inactive) | 63 µM (inactive) | > 100 µM (inactive) | 51.2 µM (inactive) | 28.4 µM (inactive) | – | 15 µM (inactive) | > 100 µM (inactive) | 33.8 µM (inactive) | 13 µM (inactive) | > 100 µM (inactive) | > 100 µM (inactive) | 59.2 µM (inactive) | – | 52.6 µM (inactive) | 2.65 µM (inactive) | 62.7 µM (inactive) | 68.2 µM (inactive) | 92.3 µM (inactive) |
| O=C1NC(Nc2ccccc2Cl)=N/C1=C\c1c(Cl)cccc1Cl | 33.4 µM (inactive) | 30.4 µM (inactive) | 34.1 µM (inactive) | 37.2 µM (inactive) | 22.5 µM (inactive) | 28.8 µM (inactive) | 25.8 µM (inactive) | 28.7 µM (inactive) | 42.5 µM (inactive) | 37.1 µM (inactive) | 23.2 µM (inactive) | 30 µM (inactive) | 23.4 µM (inactive) | 31.1 µM (inactive) | 26.5 µM (inactive) | 24.7 µM (inactive) | 5.52 µM (inactive) | 25.4 µM (inactive) | 32.1 µM (inactive) | 44.1 µM (inactive) |
| NC(=S)NC/C=C/Cl | > 100 µM (inactive) | > 100 µM (inactive) | > 100 µM (inactive) | > 100 µM (inactive) | > 100 µM (inactive) | > 100 µM (inactive) | > 100 µM (inactive) | > 100 µM (inactive) | > 100 µM (inactive) | > 100 µM (inactive) | > 100 µM (inactive) | > 100 µM (inactive) | > 100 µM (inactive) | – | > 100 µM (inactive) | > 100 µM (inactive) | > 100 µM (inactive) | > 100 µM (inactive) | > 100 µM (inactive) | > 100 µM (inactive) |
| O=C(O)c1nc2ccc(Cl)cc2[nH]c1=O | > 100 µM (inactive) | > 100 µM (inactive) | > 100 µM (inactive) | > 100 µM (inactive) | > 100 µM (inactive) | > 100 µM (inactive) | > 100 µM (inactive) | > 100 µM (inactive) | > 100 µM (inactive) | > 100 µM (inactive) | > 100 µM (inactive) | > 100 µM (inactive) | > 100 µM (inactive) | > 100 µM (inactive) | > 100 µM (inactive) | – | > 100 µM (inactive) | > 100 µM (inactive) | > 100 µM (inactive) | > 100 µM (inactive) |
| OC1(c2ccccc2)C2CC=CC2C1(c1ccccc1)c1ccccc1 (centres undefined) | 61.7 µM (inactive) | 25.2 µM (inactive) | 30.3 µM (inactive) | 61.7 µM (inactive) | 31.2 µM (inactive) | 38.3 µM (inactive) | 20.1 µM (inactive) | 26.4 µM (inactive) | – | 41.9 µM (inactive) | 44.3 µM (inactive) | 60.8 µM (inactive) | 16.7 µM (inactive) | 31 µM (inactive) | 34 µM (inactive) | 34.1 µM (inactive) | 19.2 µM (inactive) | 27 µM (inactive) | 23.9 µM (inactive) | 51.3 µM (inactive) |
| CCN(CC)CCN(C)CCc1ccc(Br)cc1 | 53.7 µM (inactive) | > 100 µM (inactive) | 42.5 µM (inactive) | > 100 µM (inactive) | 59.8 µM (inactive) | 21.7 µM (inactive) | > 100 µM (inactive) | 48.8 µM (inactive) | 24.7 µM (inactive) | > 100 µM (inactive) | 79.4 µM (inactive) | 48 µM (inactive) | 38.5 µM (inactive) | > 100 µM (inactive) | 51.5 µM (inactive) | 46.7 µM (inactive) | > 100 µM (inactive) | 37.6 µM (inactive) | – | > 100 µM (inactive) |
| NC1Cc2ccccc2OC1=O (centres undefined) | > 100 µM (inactive) | > 100 µM (inactive) | > 100 µM (inactive) | > 100 µM (inactive) | – | > 100 µM (inactive) | > 100 µM (inactive) | > 100 µM (inactive) | > 100 µM (inactive) | > 100 µM (inactive) | > 100 µM (inactive) | > 100 µM (inactive) | > 100 µM (inactive) | > 100 µM (inactive) | > 100 µM (inactive) | > 100 µM (inactive) | > 100 µM (inactive) | > 100 µM (inactive) | > 100 µM (inactive) | > 100 µM (inactive) |
| NC1CC(Cl)c2c(Cl)sc(Cl)c21 (centres undefined) | > 100 µM (inactive) | > 100 µM (inactive) | > 100 µM (inactive) | > 100 µM (inactive) | > 100 µM (inactive) | > 100 µM (inactive) | > 100 µM (inactive) | > 100 µM (inactive) | > 100 µM (inactive) | > 100 µM (inactive) | > 100 µM (inactive) | > 100 µM (inactive) | 14.2 µM (inactive) | > 100 µM (inactive) | > 100 µM (inactive) | > 100 µM (inactive) | 61.8 µM (inactive) | > 100 µM (inactive) | > 100 µM (inactive) | – |
| CCCCCCCCCCC/C=C(/C(=O)CCCO[Si](C)(C)C(C)(C)C)C(=O)OC | > 100 µM (inactive) | – | > 100 µM (inactive) | > 100 µM (inactive) | > 100 µM (inactive) | > 100 µM (inactive) | > 100 µM (inactive) | > 100 µM (inactive) | > 100 µM (inactive) | > 100 µM (inactive) | > 100 µM (inactive) | > 100 µM (inactive) | > 100 µM (inactive) | > 100 µM (inactive) | > 100 µM (inactive) | > 100 µM (inactive) | > 100 µM (inactive) | > 100 µM (inactive) | > 100 µM (inactive) | > 100 µM (inactive) |
| N#CC1C(=S)NC(c2ccccc2)=CC12CCCCC2 (centres undefined) | 35 µM (inactive) | 29.6 µM (inactive) | 15.8 µM (inactive) | 26.6 µM (inactive) | 24.5 µM (inactive) | 53.7 µM (inactive) | 23.4 µM (inactive) | 21.9 µM (inactive) | 26.7 µM (inactive) | 15.7 µM (inactive) | 28.8 µM (inactive) | 37.5 µM (inactive) | 87.1 µM (inactive) | 66.8 µM (inactive) | – | 58.7 µM (inactive) | 21.1 µM (inactive) | 64.7 µM (inactive) | 20 µM (inactive) | 32.5 µM (inactive) |
| CCOc1cc2c(cc1O)C=C[C@@H]1[C@@H]2CC[C@]2(C)[C@@H](O)CC[C@@H]12 | 4.35 µM (inactive) | 4.27 µM (inactive) | 13.9 µM (inactive) | 1.53 µM (inactive) | 1.11 µM (active) | 4.19 µM (inactive) | 2.88 µM (inactive) | 3.61 µM (inactive) | 4.06 µM (inactive) | 3.85 µM (inactive) | 1.37 µM (inactive) | 27.6 µM (inactive) | 7.29 µM (inactive) | 9.06 µM (inactive) | 1.91 µM (inactive) | 3.3 µM (inactive) | 0.472 µM (active) | 12.5 µM (inactive) | 4.07 µM (inactive) | 3.52 µM (inactive) |
| NS(=O)(=O)c1nnc(NS(=O)(=O)c2cccc3cccnc23)s1 | > 100 µM (inactive) | > 100 µM (inactive) | > 100 µM (inactive) | > 100 µM (inactive) | > 100 µM (inactive) | > 100 µM (inactive) | – | > 100 µM (inactive) | > 100 µM (inactive) | > 100 µM (inactive) | > 100 µM (inactive) | > 100 µM (inactive) | > 100 µM (inactive) | > 100 µM (inactive) | > 100 µM (inactive) | – | 41.9 µM (inactive) | > 100 µM (inactive) | > 100 µM (inactive) | > 100 µM (inactive) |
| c1ccc(NNN2NC(c3ccccc3)C2c2ccccc2)cc1 (centres undefined) | > 100 µM (inactive) | 60 µM (inactive) | > 100 µM (inactive) | > 100 µM (inactive) | 79.4 µM (inactive) | > 100 µM (inactive) | – | 98.2 µM (inactive) | > 100 µM (inactive) | 92.3 µM (inactive) | 97.3 µM (inactive) | > 100 µM (inactive) | 24.3 µM (inactive) | > 100 µM (inactive) | > 100 µM (inactive) | > 100 µM (inactive) | > 100 µM (inactive) | 87.9 µM (inactive) | > 100 µM (inactive) | > 100 µM (inactive) |
| O=C1CC(c2ccccc2)Oc2ccccc21 (centres undefined) [FLAVANONE] | 29.3 µM (inactive) | – | 15.4 µM (inactive) | 67.6 µM (inactive) | 30.3 µM (inactive) | 67.3 µM (inactive) | 23.4 µM (inactive) | 37.8 µM (inactive) | 32.4 µM (inactive) | 15.9 µM (inactive) | 34.9 µM (inactive) | – | 36.2 µM (inactive) | 64.7 µM (inactive) | 58.1 µM (inactive) | 63.4 µM (inactive) | 24 µM (inactive) | 77.3 µM (inactive) | 51.3 µM (inactive) | 23.1 µM (inactive) |
